Several values for one entry are separate records, joined by “and”; a condition that tells them apart may be missing. Equal values may be shown once. Read-outs that look alike come from different tables or passages of the source.
Assay: Study 1: plasma HMB after a single dose, sampled to 180 min
Type: in vivo, human
Settings: for AUC plasma HMB / greater area under the curve (AUC) than CaHMB: 180 min; for Cpeak (peak plasma HMB concentration): single dose 1 g CaHMB or 0.80 g free acid
Excerpt: Human subjects. In study 1, four male and four female college-aged subjects were studied. In study 2, an additional four male and four female college-aged subjects were studied. The protocols for both studies were approved by the Iowa State University IRB and each subject gave informed consent to participate in the study. Due to the nature of the treatments, neither the subjects nor the researchers could be blinded.
Treatments. The same treatments were given to the subjects in both study groups. The three treatments were given in random order to each subject with at least a one week washout period between treatments. The treatments were supplied by Metabolic Technologies, Inc. (MTI, Ames, Iowa) and were prepared with food grade ingredients. One gram of CaHMB or the equivalent HMB in free acid in a gel form was administered to the subjects. The CaHMB capsules were obtained from a commercial supplement manufacturer (Optimum Nutrition, Aurora, Ill.) while the HMB-acid gel was prepared at MTI laboratories. Briefly, the HMB-acid was adjusted to a pH 4.5 with potassium carbonate (K2CO3) and flavors and sweeteners were then added. The 1.0 g CaHMB capsule was taken with 355 mL of water (approx. 12 oz.). The free acid gel dosage was 0.80 g and was equivalent to the free acid contained in the CaHMB in the capsule. The free acid gel treatments were either swallowed (FASW) or held sublingual for 15 seconds and then swallowed (FASL). FASW consisted of expelling the entire dose into the mouth in a 3 ml syringe, swallowing, and then following this with 355 mL of water. FASL subjects were instructed to place the entire dosage under the tongue and hold the dosage for 15 sec before swallowing. They then rinsed and followed the dose with 355 mL of water.
Study 1 design. For study 1 the subjects reported to the laboratory in the morning following an overnight fast. Before ingestion of one of the supplemental treatments, a flexible sterile polyethylene catheter was inserted into a forearm vein using sterile procedures and a pre-ingestion blood sample was drawn. Subsequent blood samples were taken at 0, 2, 5, 10, 15, 25, 35, 45, 60, 90, 120 and 180 min after ingestion of the treatment. Plasma was separated and samples were stored frozen at −70° C. for analysis of HMB concentration. In addition, a portion of the pre-ingestion and 180 minute blood samples were used for measurements (LabCorp, Kansas City, Mo.) of glucose, uric acid, blood urea nitrogen (BUN), creatinine, sodium, potassium, chloride, carbon dioxide, phosphorous, protein, albumin, globulin, albumin:globulin ratio, total bilirubin, direct bilirubin, alkaline phosphatase, lactate dehydrogenase, aspartate aminotransferase (AST), alanine aminotransferase (ALT), gamma-glutamyl transpeptidase (GGT), iron binding capacity (TIBC), unsaturated iron binding capacity (UIBC), iron, iron saturation, total cholesterol, triglycerides, high density lipoprotein (HDL), low density lipoprotein (LDL), and cholesterol ratio. A complete blood count (CBC) was also performed before and after the 180 min treatment period. Subjects also completed a brief questionnaire to report any physical symptoms (such as nausea, headache, etc) they may have experienced during the experiment.
HMB analysis. Plasma and urine HMB were analyzed by gas chromatography/mass spectrometry (GC/MS) as previously described.(27)
Calculations and statistics. Areas under the curves were calculated for each subject using the trapezoidal method that sums the area above baseline.(51) Half-life of plasma HMB was calculated for study 2. The following equations were used: […]
The data were analyzed using a crossover design with Proc GLM in SAS. (45) For the timed sampling of plasma HMB a repeated measures polynomial model was used. The model included subject, order, and treatment main effects and time by treatment interaction where appropriate. […]

[1] = listed as Free Acid Gel Swallow
[2] = listed as Free Acid Gel Sublingual

Compound: CC(C)(O)CC(=O)[O-].CC(C)(O)CC(=O)[O-].[Ca+2] [CaHMB, calcium β-hydroxy-β-methylbutryate, reference compound]
- time of peak plasma HMB: 122 ± 15.6 min
- tpeak (time to reach peak plasma concentration): 121.9 ± 15.6 min
- AUC plasma HMB: 13,997 ± 1,534 nmol/180 min
- Cpeak (peak plasma HMB concentration): 131 ± 10 nmol/mL and 131.2 ± 10.1 nmol/mL

Compound: CC(C)(O)CC(=O)O [HMB-Acid Gel Swallow, 3-hydroxy-3-methylbutyric acid]
- greater area under the curve (AUC) than CaHMB (listed as FASW): 97%
- AUC plasma HMB [1]: 27,532 ± 1,742 nmol/180 min
- tpeak (time to reach peak plasma concentration) (listed as FASW): 33.1 ± 4.6 min
- tpeak (time to reach peak plasma concentration) [1]: 33.1 ± 4.6 min
- Cpeak (peak plasma HMB concentration) (listed as FASW): 259 ± 24 nmol/mL
- Cpeak (peak plasma HMB concentration) [1]: 259.1 ± 23.9 nmol/mL

Compound: CC(C)(O)CC(=O)O [HMB-Acid Gel Sublingual, 3-hydroxy-3-methylbutyric acid]
- greater area under the curve (AUC) than CaHMB (listed as FASL): 91%
- AUC plasma HMB [2]: 26,778 ± 1,980 nmol/180 min
- tpeak (time to reach peak plasma concentration) (listed as FASL): 36.3 ± 1.3 min
- tpeak (time to reach peak plasma concentration) [2]: 36.3 ± 1.3 min
- Cpeak (peak plasma HMB concentration) (listed as FASL): 231 ± 21 nmol/mL
- Cpeak (peak plasma HMB concentration) [2]: 231.2 ± 21.0 nmol/mL
